From patent US8841291B2, “Selective hydroxamic acid based MMP-12 and MMP-13 inhibitors” (Novartis AG, priority 2008, dated 2014)

Legend:
Collagenase-3 (MMP-13) = Collagenase-3 (MMP-13) (Homo sapiens, UniProt P45452); test: Collagenase-3 (MMP-13) inhibitory activity, fluorogenic peptide substrate assay; assay type: biochemical; conditions: recombinant pro-collagenase-3 activated with 1 mM APMA; read-out: MMP13 IC50
Method: (§1) Stock solutions of inhibitors (0.03 mM-3 mM) are also prepared in DMSO. The inhibitors are diluted into the assay solutions, and the controls use an equal volume of DMSO so that the final DMSO concentration from the inhibitor and substrate dilutions in all assays is 1.0%. Assays are performed in an assay buffer (100 mM sodium chloride, 10 μM ZnCl. Sub 2, 10 mM CaCl2, 100 mM Tris-Cl pH7.5, 0.05% Brij-35), containing 1.0% DMSO from the substrate and inhibitor additions. The substrate concentration used in the assays is 5 μM. The assays are carried out at 20-25° C. […] The reaction mixtures are added in duplicate into appropriate wells of a 384-well assay plate. The reaction mixtures are preincubated with the inhibitors for 60 minutes The reactions are started by the addition of MMP substrate, and the fluorescence intensity changes are measured after 60 minutes The apparent enzyme activity in the presence of an inhibitor is then compared with that in the absence of any inhibitor to determine the inhibition effect of the inhibitor.
Collagenase-3 (MMP-13) inhibitory activity is determined as described above. Recombinant pro-collagenase-3 is activated with 1 mM APMA, and stored in the assay buffer after extensive dialysis in the assay buffer.

Gelatinase (MMP-2) = biological target: T1, Gelatinase (MMP-2) (Homo sapiens, UniProt P08253); test: Gelatinase (MMP-2) inhibitory activity, fluorogenic peptide substrate assay; assay type: biochemical; conditions: substrate 5 μM, 60 min preincubation, 20-25° C.; read-out: MMP2 IC50
T1 sequence (P08253 110-660): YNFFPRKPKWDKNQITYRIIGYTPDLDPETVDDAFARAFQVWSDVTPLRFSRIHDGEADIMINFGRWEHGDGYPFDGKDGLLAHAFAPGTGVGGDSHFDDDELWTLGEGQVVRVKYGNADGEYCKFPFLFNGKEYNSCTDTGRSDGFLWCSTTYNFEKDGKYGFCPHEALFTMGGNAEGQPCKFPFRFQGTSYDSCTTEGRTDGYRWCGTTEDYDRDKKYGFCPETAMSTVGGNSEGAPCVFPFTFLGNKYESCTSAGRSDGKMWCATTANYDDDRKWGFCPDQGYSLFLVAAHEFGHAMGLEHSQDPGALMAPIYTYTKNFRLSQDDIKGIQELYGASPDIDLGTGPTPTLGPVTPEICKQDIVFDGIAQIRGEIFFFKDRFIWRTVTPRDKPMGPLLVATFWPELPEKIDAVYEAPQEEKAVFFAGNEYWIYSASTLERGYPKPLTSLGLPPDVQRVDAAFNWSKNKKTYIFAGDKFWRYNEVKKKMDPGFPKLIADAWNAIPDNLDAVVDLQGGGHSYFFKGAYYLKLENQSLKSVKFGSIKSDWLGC
Method: as §1

| SMILES | IC50 (Collagenase-3 (MMP-13)) | IC50 (Gelatinase (MMP-2)) |
| --- | --- | --- |
| O=C(NO)[C@H]1CC=CCCN1S(=O)(=O)c1ccc2ccccc2c1 [Example 88, (R)-1-(Naphthalene-2-sulfonyl)-2,3,6,7-tetrahydro-1H-azepine-2-carboxylic acid hydroxyamide] | 16.2 nM | 63.5 nM |
| CC1(C)SCCN(S(=O)(=O)c2ccc3ccccc3c2)[C@H]1C(=O)NO [Example 90] | < 0.3 nM | 50.7 nM |
| O=C(NO)[C@H]1C2CCC(CC2)N1S(=O)(=O)c1ccc2ccccc2c1 [Example 91, (R)-2-(Naphthalene-2-sulfonyl)-2-aza-bicyclo[2.2.2]octane-3-carboxylic acid hydroxyamide] | 6950 nM | 22200 nM |

The next lines start with the values.

| IC50 (Collagenase-3 (MMP-13)) | IC50 (Gelatinase (MMP-2)) | SMILES |
| --- | --- | --- |
| 225 nM | 765 nM | CC(C)(C)[C@@H](NS(=O)(=O)c1ccc2ncccc2c1)C(=O)NO [Example 92, (R)—N-Hydroxy-3,3-dimethyl-2-(quinoline-6-sulfonylamino)-butyramide] |
| 90 nM | 600 nM | CC(C)(C)[C@@H](NS(=O)(=O)c1ccc2ccccc2c1)C(=O)NO [Example 93, (R)—N-Hydroxy-3,3-dimethyl-2-(naphthalene-2-sulfonylamino)-butyramide] |
| 63 nM | 713 nM | CC(C)CCN([C@@H](C(=O)NO)C(C)C)S(=O)(=O)c1nc2ccccc2s1 [Example 98, (R)-2-[(Benzothiazole-2-sulfonyl)-(3-methyl-butyl)-amino]-N-hydroxy-3-methyl-butyramide] |
